This note sets out measurements from ChEMBL document CHEMBL1129353, “Synthesis and biological evaluation of N alpha-(4-amino-4-deoxy-10-methylpteroyl)-DL-4,4-difluoroornithine” (J Med Chem, 1996).

In general, IC50 refers to the concentration at which inhibition is half-maximal. Higher therefore signals lower potency. One may read the pKa as the negative logarithm of the acid dissociation constant. A lower pKa goes with a group that gives up its proton readily. The Ki is the dissociation constant of the complex between target and ligand, obtained from inhibition or displacement. Higher therefore signals a looser hold on the target.

The target of data set [1] is T1, Folylpolyglutamate synthase, mitochondrial (Homo sapiens, UniProt Q05932).
T1 sequence (Q05932 whole entry): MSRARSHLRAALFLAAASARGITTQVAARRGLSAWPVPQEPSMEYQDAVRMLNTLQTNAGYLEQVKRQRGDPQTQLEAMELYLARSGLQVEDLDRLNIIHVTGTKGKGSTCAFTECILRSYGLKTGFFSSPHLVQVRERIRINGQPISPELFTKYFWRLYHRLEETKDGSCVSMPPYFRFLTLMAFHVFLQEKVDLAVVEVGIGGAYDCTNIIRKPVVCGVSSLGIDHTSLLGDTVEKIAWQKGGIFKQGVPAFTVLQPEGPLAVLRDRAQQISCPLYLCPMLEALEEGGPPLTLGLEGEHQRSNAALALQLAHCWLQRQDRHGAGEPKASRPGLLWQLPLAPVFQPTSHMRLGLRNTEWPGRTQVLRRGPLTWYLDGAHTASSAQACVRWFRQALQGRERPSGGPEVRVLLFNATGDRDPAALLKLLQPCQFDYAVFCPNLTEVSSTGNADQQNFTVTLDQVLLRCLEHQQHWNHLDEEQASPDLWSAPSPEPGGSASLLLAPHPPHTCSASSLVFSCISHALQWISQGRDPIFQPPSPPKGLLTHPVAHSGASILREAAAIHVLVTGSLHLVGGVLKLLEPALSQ
Description: Inhibitory concentration against human Folyl-polyglutamate synthase isolated from CCRF-CEM human leukemia cells. Format: cell-free.

The test system of data set [2] is CCRF-CEM. Description: cells. To be noted: Homo sapiens, read-out: ED50.
In data set [3] the target is T2, Dihydrofolate reductase (Homo sapiens, UniProt P00374).
T2 sequence (P00374 whole entry): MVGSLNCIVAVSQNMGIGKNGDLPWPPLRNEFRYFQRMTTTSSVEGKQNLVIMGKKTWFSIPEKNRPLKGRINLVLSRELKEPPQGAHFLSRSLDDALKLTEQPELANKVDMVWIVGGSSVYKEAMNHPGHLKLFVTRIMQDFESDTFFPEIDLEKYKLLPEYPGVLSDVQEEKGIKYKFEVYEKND
Description: Inhibitory concentration against dihydrofolate reductase enzyme (DHFR) enzyme isolated from CCRF-CEM human leukemia cells. value mentioned is from literature.

Data set [4] can be described thus: Dissociation constant was evaluated. The format is physicochemical.
The test system of data set [5] is CCRF-CEM. Description: Inhibitory activity against growth of CCRF-CEM human leukemia cells. value mentioned is from literature. Particulars: read-out: ED50. The format is functional.
For data set [6], the target named is T2, Dihydrofolate reductase. Kind of data set: Inhibitory concentration against dihydrofolate reductase enzyme (DHFR) enzyme isolated from CCRF-CEM human leukemia cells. Format: cell-free.
The target in data set [7] is T1, Folylpolyglutamate synthase, mitochondrial. Kind of data set: Inhibitory activity against mammalian Folyl-polyglutamate synthase.

Each structure is given as a SMILES string. Where only a bound is given, the exact number is not on record here.

For the compound `CN(Cc1cnc2nc(N)nc(N)c2n1)c1ccc(C(=O)NC(CCCN)C(=O)O)cc1` (stereo unspecified), the IC50 in data set [1] came out at 33 µM; at Dihydrofolate reductase [3], 0.001 µM; on Dihydrofolate reductase [6] it was 0.0025 µM. Further, the EC50 in the data set on CCRF-CEM [2] and with CCRF-CEM [5] was 0.74 µM each time. The compound also displayed a pKa in data set [4] of 10.8.

For the compound `NCC(F)(F)CC(N)C(=O)O` (stereo unspecified), the pKa in data set [4] was 6.9.

In the case of `NCCCC(NC(=O)c1ccc(NCC2CNc3nc(N)[nH]c(=O)c3N2)cc1)C(=O)O` (stereo unspecified), the Ki in data set [7] was 0.2 µM.

In the case of `CN(Cc1cnc2nc(N)nc(N)c2n1)c1ccc(C(=O)NC(CC(F)(F)CN)C(=O)O)cc1` (stereo unspecified), the concentration for half-maximal inhibition (IC50) in data set [1] is more than 300 µM; against Dihydrofolate reductase [6] it was 0.0013 µM. Besides, the EC50 in the data set with CCRF-CEM [2] was determined as 0.093 µM.
